This note sets out measurements from patent publication US10961238B2, “Modulators of hedgehog (Hh) signaling pathway” (E-THERAPEUTICS PLC, priority 2016, dated 2021).

Molecules are shown by their SMILES.

In the experiment the test system is C3H10T1/2 cells. As to the kind of experiment: C3H assay: differentiation of C3H10T1/2 cells by mSHH, measurement of alkaline phosphatase. It counts as cell-based, mouse. To be noted: Mus musculus, C3H 10T1/2; C3H10T1/2 cells stimulated with mSHH for 72 hours; alkaline phosphatase activity; read-out: IC50 Ranges.
As for `O=C(Oc1ccccc1O)N1CC(S(=O)(=O)N2CCC(c3c[nH]c4ncccc34)CC2)C1` [Compound 183, (2-hydroxyphenyl) 3-[4-(1H-pyrrolo[2,3-b]pyridin-3-yl)piperidin-1-yl]sulfonylaze-tidine-1-carboxylate], the IC50 was in the range of 100 to 1000 nM. With `O=S(=O)(C1CN(c2nc(C(F)(F)F)ccc2C(F)(F)F)C1)N1CCC(c2c[nH]c3ncccc23)CC1` [Compound 184, 3-[1-[1-[3,6-bis(trifluoromethyl)pyridin-2-yl]azetidin-3-yl]sulfonylpiper-idin-4-yl]-1H-pyrrolo[2,3-b]pyridine] the figure was 100 to 1000 nM.

Consider `COc1ccc(C(F)(F)F)c(N2CC(S(=O)(=O)N3CCC(c4c[nH]c5ncccc45)CC3)C2)n1` [Compound 185, 3-[1-[1-[6-methoxy-3-(trifluoromethyl)pyridin-2-yl]azetidin-3-yl]sulfonylpiper-idin-4-yl]-1H-pyrrolo[2,3-b]pyridine], for which the IC50 was in the range of 100 to 1000 nM. Regarding `O=S(=O)(C1CN(c2ncccc2C(F)(F)F)C1)N1CCC(c2c[nH]c3ncccc23)CC1` [Compound 186, 3-[1-[1-[3-(trifluoromethyl)pyridin-2-yl]azetidin-3-yl]sulfonylpiper-idin-4-yl]-1H-pyrrolo [2,3-b]pyridine], the IC50 was in the range of 100 to 1000 nM. To `Cc1ccnc(N2CC(S(=O)(=O)N3CCC(c4c[nH]c5ncccc45)CC3)C2)c1C#N` [Compound 187, 4-methyl-2-[3-[4-(1H-pyrrolo[2,3-b]pyridin-3-yl)piperidin-1-yl]sulfonylaze-tidin-1-yl]pyridine-3-carbonitrile] belongs 100 to 1000 nM; to `O=C(C1CCCCC1)N1CC(S(=O)(=O)N2CCC(c3c[nH]c4ncccc34)CC2)C1` [Compound 189, Cyclohexyl-[3-[[4-(1H-pyrrolo[2,3-b]pyridin-3-yl)-1-piperidyl]sulfonyl]azetidin-1-yl]methanone], 10 to 100 nM; to `O=C(C1CCCC1)N1CC(S(=O)(=O)N2CCC(c3c[nH]c4ncccc34)CC2)C1` [Compound 190, cyclopentyl-[3-[4-(1H-pyrrolo[2,3-b]pyridin-3-yl)piperidin-1-yl]sulfonylaze-tidin-1-yl]methanone], 10 to 100 nM. Regarding `O=C(C1CC1)N1CC(S(=O)(=O)N2CCC(c3c[nH]c4ncccc34)CC2)C1` [Compound 191, cyclopropyl-[3-[4-(1H-pyrrolo[2,3-b]pyridin-3-yl)piperidin-1-yl]sulfonylaze-tidin-1-yl]methanone], the 50% inhibitory concentration (IC50) lay within 100 to 1000 nM. To `O=C(c1ccccn1)N1CC(S(=O)(=O)N2CCC(c3c[nH]c4ncccc34)CC2)C1` [Compound 192, pyridin-2-yl-[3-[4-(1H-pyrrolo[2,3-b]pyridin-3-yl)piperidin-1-yl]sulfonylaze-tidin-1-yl]methanone] belongs 100 to 1000 nM. For the molecule `O=C(c1cccs1)N1CC(S(=O)(=O)N2CCC(c3c[nH]c4ncccc34)CC2)C1` [Compound 193, [3-[4-(1H-pyrrolo[2,3-b]pyridin-3-yl)piperidin-1-yl]sulfonylaze-tidin-1-yl]-thiophen-2-ylmethanone], the IC50 fell in the range of 10 to 100 nM.

With `CC(C)C(=O)N1CC(S(=O)(=O)N2CCC(c3c[nH]c4ncccc34)CC2)C1` [Compound 194, 2-methyl-1-[3-[4-(1H-pyrrolo[2,3-b]pyridin-3-yl)piperidin-1-yl]sulfonylaze-tidin-1-yl]propan-1-one], the IC50 was in the range of 100 to 1000 nM.

Take `CC(C)CC(=O)N1CC(S(=O)(=O)N2CCC(c3c[nH]c4ncccc34)CC2)C1` [Compound 195, 3-methyl-1-[3-[4-(1H-pyrrolo[2,3-b]pyridin-3-yl)piperidin-1-yl]sulfonylaze-tidin-1-yl]butan-1-one]: the half-maximal inhibitory concentration (IC50) fell in the range of 10 to 100 nM.

Consider `O=C(O[C@@H]1CCOC1)N1CC(S(=O)(=O)N2CCC(c3c[nH]c4ncccc34)CC2)C1` [Compound 196, [(3R)-oxolan-3-yl]3-[4-(1H-pyrrolo[2,3-b]pyridin-3-yl)piperidin-1-yl]sulfonylaze-tidine-1-carboxylate], for which the IC50 lay within 100 to 1000 nM. To `O=C(O[C@H]1CCOC1)N1CC(S(=O)(=O)N2CCC(c3c[nH]c4ncccc34)CC2)C1` [Compound 197, [(3S)-oxolan-3-yl]3-[4-(1H-pyrrolo[2,3-b]pyridin-3-yl)piperidin-1-yl]sulfonylaze-tidine-1-carboxylate] belongs 10 to 100 nM; to `O=C(OC1CCC1)N1CC(S(=O)(=O)N2CCC(c3c[nH]c4ncccc34)CC2)C1` [Compound 198, cyclobutyl 3-[4-(1H-pyrrolo[2,3-b]pyridin-3-yl)piperidin-1-yl]sulfonylaze-tidine-1-carboxylate], 10 to 100 nM; to `CC1(COC(=O)N2CC(S(=O)(=O)N3CCC(c4c[nH]c5ncccc45)CC3)C2)COC1` [Compound 199, (3-methyloxetan-3-yl)methyl 3-[4-(1H-pyrrolo[2,3-b]pyridin-3-yl)piperidin-1-yl]sulfonylaze-tidine-1-carboxylate], 10 to 100 nM. On to `CC[C@@H](C)OC(=O)N1CC(S(=O)(=O)N2CCC(c3c[nH]c4ncccc34)CC2)C1` [Compound 200, [(2R)-butan-2-yl]3-[4-(1H-pyrrolo[2,3-b]pyridin-3-yl)piperidin-1-yl]sulfonylaze-tidine-1-carboxylate], for which the IC50 was in the range of 10 to 100 nM. With `O=C(OCC1CCC1)N1CC(S(=O)(=O)N2CCC(c3c[nH]c4ncccc34)CC2)C1` [Compound 201, cyclobutylmethyl 3-[4-(1H-pyrrolo[2,3-b]pyridin-3-yl)piperidin-1-yl]sulfonylaze-tidine-1-carboxylate] the figure was 10 to 100 nM; with `Cc1noc(C)c1COC(=O)N1CC(S(=O)(=O)N2CCC(c3ccncc3)CC2)C1` [Compound 202, (3,5-dimethyl-1,2-oxazol-4-yl)methyl 3-(4-pyridin-4-ylpiperidin-1-yl)sulfonylaze-tidine-1-carboxylate], 100 to 1000 nM. In the case of `Cc1noc(C)c1CNC(=O)N1CC(S(=O)(=O)N2CCC(c3ccncc3)CC2)C1` [Compound 203, N-[(3,5-dimethyl-1,2-oxazol-4-yl)methyl]-3-(4-pyridin-4-ylpiperidin-1-yl)sulfonylaze-tidine-1-carboxamide], the IC50 was 1000 to 10000 nM.

Regarding `O=C(OCC1CC1)N1CC(S(=O)(=O)N2CCC(c3c[nH]c4ncccc34)CC2)C1` [Compound 204, cyclopropylmethyl 3-[4-(1H-pyrrolo[2,3-b]pyridin-3-yl)piperidin-1-yl]sulfonylaze-tidine-1-carboxylate], the IC50 is 10 to 100 nM. For `Cc1noc(C)c1CC(=O)N1CC(S(=O)(=O)N2CCC(c3ccncc3)CC2)C1` [Compound 205, 2-(3,5-dimethyl-1,2-oxazol-4-yl)-1-[3-(4-pyridin-4-ylpiperidin-1-yl)sulfonylaze-tidin-1-yl]ethanone], the half-maximal inhibitory concentration (IC50) lay in the range of 10 to 100 nM. To `CCN(C(=O)N1CC(S(=O)(=O)N2CCC(c3c[nH]c4ncccc34)CC2)C1)C(C)C` [Compound 206, N-ethyl-N-propan-2-yl-3-[4-(1H-pyrrolo[2,3-b]pyridin-3-yl)piperidin-1-yl]sulfonylaze-tidine-1-carboxamide] belongs 10 to 100 nM; to `O=C(OCc1cccc(Oc2ccccc2)c1)N1CC(S(=O)(=O)N2CCC(c3c[nH]c4ncccc34)CC2)C1` [Compound 207, (3-phenoxyphenyl) methyl 3-[4-(1H-pyrrolo [2,3-b]pyridin-3-yl)piperidin-1-yl]sulfonylaze-tidine-1-carboxylate], 10 to 100 nM.

Broadly, the IC50 is the concentration that gives 50% inhibition.
